For test [1], the target named is T1, Human vitronectin receptor (αvβ3) (Homo sapiens, UniProt P05106+P06756).
T1 construct: Human vitronectin receptor (αvβ3) was purified from human placenta; from tissue; host or cells: human placenta
Nature of the test: Vitronectin adhesion assay (solid phase receptor assay, competition with biotinylated vitronectin). To be noted: read-out: AvB3 IC50. The test is classed as binding. The essentials: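 Purified human αvβ3 coated overnight at 4 °C in TBS with 1.0 mM Ca++, Mg++, Mn++, pH 7.4; compounds (top final 1.0×10^−4 M) competed with 1 nM biotinylated vitronectin for 2 h at room temperature. Bound ligand detected by HRP anti-biotin/OPD at A450; values normalized to no-competitor controls, four-parameter curve fit.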

In test [2] the target is T2, Human fibrinogen receptor (αIIbβ3) (Homo sapiens, UniProt P05106+P08514).
T2 construct: Human fibrinogen receptor (αIIbβ3) was purified from outdated platelets; from tissue; host or cells: outdated human platelets
Nature of the test: Purified IIb/IIIa receptor assay (solid phase receptor assay, competition with biotinylated vitronectin). The format is binding. To be noted: read-out: IIb/IIIa IC50. The gist of the method:
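Competition format: 1 nM biotinylated vitronectin plus test compound (highest 1.0×10^−4 M), 2 h at room temperature on wells coated with platelet-derived αIIbβ3. Buffer was TBS containing 1.0 mM Ca, Mg, Mn, pH 7.4. HRP anti-biotin readout at 450 nm; normalized to maximum binding, four-parameter curve fit.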

For the next test, the system named is platelet rich plasma. The experiment in a line: Human platelet rich plasma assay (ADP induced platelet aggregation). The test is classed as cell-based. To be noted: ADP induced platelet aggregation in human platelet rich plasma, read-out: Human PRP. On the procedure:
Human Platelet Rich Plasma Assays
Healthy aspirin free donors were selected from a pool of volunteers. The harvesting of platelet rich plasma and subsequent ADP induced platelet aggregation assays were performed as described in Zucker, M. B., “Platelet Aggregation Measured by the Photometric Method”, Methods in Enzymology 169(1989):117-133. Standard venipuncture techniques using a butterfly allowed the withdrawal of 45 mL of whole blood into a 60 mL syringe containing 5 mL of 3.8% trisodium citrate. Following thorough mixing in the syringe, the anti-coagulated whole blood was transferred to a 50 mL conical polyethylene tube. The blood was centrifuged at room temperature for 12 minutes at 200×g to sediment non-platelet cells. Platelet rich plasma was removed to a polyethylene tube and stored at room temperature until used. Platelet poor plasma was obtained from a second centrifugation of the remaining blood at 2000×g for 15 minutes. Platelet counts are typically 300,000 to 500,000 per microliter. Platelet rich plasma (0.45 mL) was aliquoted into siliconized cuvettes and stirred (1100 rpm) at 37° C. for 1 minute prior to adding 50 uL of pre-diluted test compound. After 1 minute of mixing, aggregation was initiated by the addition of 50 uL of 200 uM ADP. Aggregation was recorded for 3 minutes in a Payton dual channel aggregometer (Payton Scientific, Buffalo, N.Y.). The percent inhibition of maximal response (saline control) for a series of test compound dilutions was used to determine a dose response curve.

pIC50: −log10 of the molar value. Counter-ions that a name gives are not always drawn. Like-named read-outs stand apart in the source and are kept apart here. Where only a bound is given, the exact number is not on record here.

Regarding “3S-[[2-[[[3-[(aminoiminomethyl)amino]phenyl]carbonyl]amino]acetyl]amino]-4-hydroxybutanoic acid [Example 86]”, the values for the pIC50 (in test [1]; in test [2]; in the test with platelet rich plasma) were 8.06, 6.61 and less than 3.70, respectively.

Take `O=C(O)CC(NC(=O)CNC(=O)c1cccc(NC(=O)Nc2ccccc2)c1)c1ccc2c(c1)OCO2` (stereo not drawn) [Example 124, β-[[2-[[[3-3-[[(phenylamino]carbonyl]amino]phenyl]carbonyl]amino]acetyl]amino]-1,3-benzodioxole-5-propanoic acid]: the pIC50 in test [1] is 7.66; in test [2], 6.50; with platelet rich plasma (Homo sapiens, Platelet), less than 4.70.

For `O=C(O)CC(NC(=O)CNC(=O)c1cccc(NC(=O)NCCc2ccccc2)c1)c1cccnc1` (stereo not drawn) [Example 130, β-[[2-[[[3-[[[(2-phenylethyl)amino]carbonyl]amino]phenyl]carbonyl]amino]acetyl]amino]pyridine-3-propanoic acid, trifluoroacetate salt], the pIC50 in test [1] was 7.33; in test [2], 5.57; in the test with platelet rich plasma (Homo sapiens, Platelet), less than 3.70.

Regarding `N=C(N)Nc1cc(C(=O)NCC(=O)NC(CC(=O)O)c2cc(C(F)(F)F)cc(C(F)(F)F)c2)cc(C(F)(F)F)c1` (racemic) [Example 39, (±)β-[[(2-[[[3-[(aminoiminomethyl)amino]-5-(trifluoromethyl)phenyl]carbonyl]amino]acetyl]amino]-3,5-bis(trifluoromethyl)benzenepropanoic acid, trifluoroacetate salt], the pIC50 in test [1] was 7.91; in test [2] it was 5.81; in the test on platelet rich plasma (Homo sapiens, Platelet) it was less than 4.70.

With `COC(=O)CC(CC(=O)O)NC(=O)CNC(=O)c1cccc(NC(=N)N)c1` (racemic) [Example 54, (±)hydrogen methyl 3-[[2-[[[3-[(aminoiminomethyl)amino]phenyl]carbonyl]amino]acetyl]amino]pentanedioate, trifluoroacetate salt], the pIC50 in test [1] is 7.97; in test [2], 6.76; in the test on platelet rich plasma (Homo sapiens, Platelet), less than 3.70.

On to `CN(CC(=O)NC(CC(=O)O)c1cccnc1)C(=O)c1cccc(NC(=N)N)c1` (racemic) [Example 80, (±)β-[[2-[[[3-[(aminoiminomethyl)amino]phenyl]carbonyl]methylamino]acetyl]amino]pyridine-3-propanoic acid, bis(trifluoroacetate)salt], for which the pIC50 in test [1] is 8.02; in test [2], 8.36; with platelet rich plasma (Homo sapiens, Platelet) it was 4.52.

As to `O=C(O)CC(NC(=O)CNC(=O)c1cccc(NC(=O)Nc2ccccc2)c1)c1cccnc1` (stereo not drawn) [Example 108, β-[[2-[[[3-[[(phenylamino]carbonyl]amino]phenyl]carbonyl]amino]acetyl]amino]pyridine-3-propanoic acid, trifluoroacetate salt], the pIC50 in test [1] is 7.60; in test [2], 5.31; in the test with platelet rich plasma (Homo sapiens, Platelet) it was less than 3.70.

On to `N=C(N)Nc1cccc(C(=O)NCC(=O)NC(CC(=O)O)c2ccc3c(c2)OCO3)c1` (racemic) [Example 6, (±)β-[[2-[[[3-[(aminoiminomethyl)amino]phenyl]carbonyl]amino]acetyl]amino]-1,3-benzodioxole-5-propanoic acid, trifluoroacetate salt], for which the pIC50 in test [1] was 8.98; in test [2] it was 7.80; in the test on platelet rich plasma (Homo sapiens, Platelet) it was 4.10.

With `C#C[C@H](CC(=O)O)NC(=O)CNC(=O)c1cccc(NC(N)=O)c1` [Example 40, 3S-[[2-[[[3-(aminocarbonylamino)phenyl]carbonyl]amino]acetyl]amino]-4-pentynoic acid], the pIC50 is 7.99 in test [1]; 6.08 in test [2]; less than 3.70 in the test with platelet rich plasma (Homo sapiens, Platelet).

As to `O=C(O)CC(NC(=O)CNC(=O)c1ccc(Cl)c(NC2=NCCCCC2)c1)c1cccnc1` (racemic) [Example 21, (±)β-[[2-[[[4-chloro-3-[(3,4,5,6-tetrahydro-2H-azepin-7-yl)amino]phenyl]carbonyl]amino]acetyl]amino]pyridine-3-propanoic acid, bis TFA Salt], the pIC50 in test [1] is 8.61; in test [2], 5.72; in the test with platelet rich plasma (Homo sapiens, Platelet), less than 3.70.

On to `O=C(O)CCNC(=O)Nc1cccc(C(=O)NCC(=O)NC(CC(=O)O)c2cccnc2)c1` (stereo not drawn) [Example 129, β-[[2-[[[3-[[[(2-carboxyethyl)amino]carbonyl]aminophenyl]carbonyl]amino]acetyl]amino]pyridine-3-propanoic acid, trifluoroacetate salt], for which the pIC50 is 7.16 in test [1]; 5.02 in test [2]; less than 3.70 in the test with platelet rich plasma (Homo sapiens, Platelet).

In the case of `N=C(N)Nc1cc(C(=O)NCC(=O)NC(CC(=O)O)c2ccccc2)ccc1Cl` (stereo not drawn) [Example 150, β-[[2-[[[3-[(aminoiminomethyl)amino]-4-chlorophenyl)carbonyl]amino]acetyl]amino]benzenepropanoic acid], the pIC50 in test [1] was 8.24; in test [2], 6.20; in the test on platelet rich plasma (Homo sapiens, Platelet) it was less than 3.70.

With `N=C(N)Nc1cccc(C(=O)NCC(=O)N[C@H](CSc2ccccc2C(=O)O)CC(=O)O)c1` [Example 72, 2-[[2S-[[2-[[[3-[(aminoiminomethyl)amino]phenyl]carbonyl]amino]acetyl]amino]-2-(carboxymethyl)ethyl]thio]benzoic acid, trifluoroacetate salt], the pIC50 in test [1] was 8.92; in test [2] it was 6.82; in the test with platelet rich plasma (Homo sapiens, Platelet), less than 3.70.

On to `N=C(N)Nc1cccc(C(=O)NCC(=O)NC(CC(=O)O)c2cc(Br)cc(Br)c2O)c1` (racemic) [Example 227, (±)β-[[2-[[[3-[(aminoiminomethyl)amino]phenyl]carbonyl]amino]acetyl]amino]-3,5-dibromo-2-hydroxybenzenepropanoic acid, trifluoroacetate salt, monohydrate], for which the pIC50 in test [1] was 7.85; in test [2] it was 5.58; in the test on platelet rich plasma (Homo sapiens, Platelet), less than 3.70.

In the case of `C#C[C@H](CC(=O)O)NC(=O)CNC(=O)c1cccc(NC(=O)NCc2ccccc2)c1` [Example 44, 3S-[[2-[[[3-[[[(phenylmethyl)amino]carbonyl]amino]phenyl]carbonyl]amino]acetyl]amino]-4-pentynoic acid], the pIC50 in test [1] is 9.48; in test [2], 6.00; in the test with platelet rich plasma (Homo sapiens, Platelet), less than 4.70.

Consider `Cc1cc(C)cc(C(CC(=O)O)NC(=O)CNC(=O)c2cccc(NC(=N)N)c2)c1` (racemic) [Example 193, (±)β-[[2-[[[3-[(aminoiminomethyl)amino]phenyl]carbonyl]amino]acetyl]amino]-3,5-dimethylbenzenepropanoic acid, trifluoroacetate salt], for which the pIC50 in test [1] was 8.59; in test [2], 6.68; with platelet rich plasma (Homo sapiens, Platelet) it was less than 4.70.

Turning to `CCN/C(=N\C)Nc1cccc(C(=O)NCC(=O)NC(CC(=O)O)c2ccc(F)cc2)c1` (racemic) [Example 297, (±)β-[[2-[[[3-[[(ethylamino)(methylimino)methyl]amino]phenyl]carbonyl]amino]acetyl]amino]-4-fluorobenzenepropanoic acid, trifluoroacetate salt], the pIC50 was 7.05 in test [1] and 5.41 in test [2].

With `Cc1ccsc1C(CC(=O)O)NC(=O)CNC(=O)c1cccc(NC(=N)N)c1` (stereo not drawn) [Example 244, β-[[2-[[[3-[(aminoiminomethyl)amino]phenyl]carbonyl]amino]acetyl]amino]-3-methylthiophene-2-propanoic acid, trifluoroacetate salt], the pIC50 in test [1] was 7.75; in test [2], 5.34.

The record behind these values is patent US6831199B1, “Pyrimidine compounds and derivatives thereof” (G. D. Searle & Co., priority 1995, dated 2004).
